{"source": "patent US20210008176A1", "about": "“COMPOSITIONS COMPRISING SULFORAPHANE OR A SULFORAPHANE PRECURSOR AND MAGNESIUM” (NUTRAMAX LABORATORIES, INC., priority 2012, published 2021)", "key": {"[1]": {"system": "broccoli sprout-derived myrosinase", "assay": "Consumption of glucoraphanin by myrosinase as a function of ascorbic acid concentration", "assay_type": "biochemical", "conditions": "for glucoraphanin (GR) content: 38° C.; for Slope (rate of glucoraphanin consumption): linear regression 0-60 min", "protocol": "Consumption of Glucoraphanin as a Function of the Ascorbic Acid Concentration.\nAbout 250 mg of broccoli seed extract containing about 12% (w/w) glucoraphanin were subjected to hydrolysis by a fixed concentration of broccoli sprout-derived myrosinase in the presence of variable concentration of ascorbic acid, ranging from 0 to 600 μmoles/Liter. The reaction mixtures were thermostated at 38° C.; aliquots were withdrawn every 15 minutes for 60 minutes, and concentration of glucoraphanin determined chromatographically. The rate of glucoraphanin consumption was interpreted as the rate its conversion to sulforaphane. Graphical representation of glucoraphanin content reduction as a function of increasing ascorbic acid concentration results in a series of linear plots; the slopes of the linear regression lines reflect the rate of glucoraphanin consumption, in μmoles/minute. It is apparent that in the presence of 600 μmoles/Liter concentration of ascorbic acid, the reaction rate increased 13-fold relative to that which proceeded in the absence of modulatory effects of ascorbic acid."}, "myrosinase": {"system": "myrosinase", "assay": "Equimolar conversion of glucoraphanin to sulforaphane by myrosinase with and without ascorbic acid", "assay_type": "biochemical, broccoli", "conditions": "control sample, without ascorbic acid", "protocol": "A two-part experiment was conducted to further elucidate the role of ascorbic acid in modulating myrosinase activity. […] A control sample contained no ascorbic acid, and the enzymatic conversion proceeded unassisted by a co-factor. PART 1. […] PART 2. While keeping the amount of broccoli seed extract fixed at 250 mg, the concentration of ascorbic acid was varied from 0.4 mmol/Liter to 3.8 mmol/Liter."}, "[2]": {"system": "monocyte chemoattractant protein (MCP-1)", "conditions": "RAW cells, 1μg/mL LPS 30 minutes, then 24 hours treatment; 0.5 μM SFN, 2.5 mM MgSO4, or both", "protocol": "The following study was conducted to determine the effect of the combination of sulforaphane and magnesium sulfate (MgSO4) on expression of monocyte chemoattractant protein (MCP-1), which is a mediator of inflammation. MCP-1 is chemokine which attracts monocytes, macrophages, and lymphocytes to sites of inflammation. A reduction in MCP-1 is beneficial for the health of endothelial cells which line the cardiovascular system.\nIn the study, RAW cells were activated with 1μg/mL lipopolysaccharide (LPS) for 30 minutes to stimulate the induction of MCP-1 gene expression. Following LPS treatment, the cells were treated with one of the following: (i) DMSO (vehicle control), (ii) 0.5 μM SFN, (iii) 2.5 mM MgSO4, or (iv) the combination of 0.5 μM SFN and 2.5 mM MgSO4. After treatment for 24 hours, the MCP-1 levels were assessed via quantitative RT-PCR."}}, "data": [{"smiles": "C[S+]([O-])CCCC/C(=N\\OS(=O)(=O)O)S[C@@H]1O[C@H](CO)[C@@H](O)[C@H](O)[C@H]1O", "note": "(stereo partly drawn) [GR, 4-methylsulfinylbutyl glucosinolate]", "values": [{"measurement": "glucoraphanin (GR) content", "setting": "[1]; ascorbic acid 0 μM, 0 min", "value": 93.36, "unit": "µmol"}, {"measurement": "glucoraphanin (GR) content", "setting": "[1]; ascorbic acid 0 μM, 15 min", "value": 92.24, "unit": "µmol"}, {"measurement": "glucoraphanin (GR) content", "setting": "[1]; ascorbic acid 0 μM, 30 min", "value": 90.71, "unit": "µmol"}, {"measurement": "glucoraphanin (GR) content", "setting": "[1]; ascorbic acid 0 μM, 45 min", "value": 89.44, "unit": "µmol"}, {"measurement": "glucoraphanin (GR) content", "setting": "[1]; ascorbic acid 0 μM, 60 min", "value": 87.79, "unit": "µmol"}, {"measurement": "Slope (rate of glucoraphanin consumption)", "setting": "[1]; ascorbic acid 0 μM", "value": -0.09293, "unit": "µmol/min"}, {"measurement": "glucoraphanin (GR) content", "setting": "[1]; ascorbic acid 50 μM, 0 min", "value": 93.36, "unit": "µmol"}, {"measurement": "glucoraphanin (GR) content", "setting": "[1]; ascorbic acid 50 μM, 15 min", "value": 89.20, "unit": "µmol"}, {"measurement": "glucoraphanin (GR) content", "setting": "[1]; ascorbic acid 50 μM, 30 min", "value": 84.24, "unit": "µmol"}, {"measurement": "glucoraphanin (GR) content", "setting": "[1]; ascorbic acid 50 μM, 45 min", "value": 80.30, "unit": "µmol"}, {"measurement": "glucoraphanin (GR) content", "setting": "[1]; ascorbic acid 50 μM, 60 min", "value": 76.36, "unit": "µmol"}, {"measurement": "Slope (rate of glucoraphanin consumption)", "setting": "[1]; ascorbic acid 50 μM", "value": -0.286, "unit": "µmol/min"}, {"measurement": "glucoraphanin (GR) content", "setting": "[1]; ascorbic acid 125 μM, 0 min", "value": 93.36, "unit": "µmol"}, {"measurement": "glucoraphanin (GR) content", "setting": "[1]; ascorbic acid 125 μM, 15 min", "value": 84.52, "unit": "µmol"}, {"measurement": "glucoraphanin (GR) content", "setting": "[1]; ascorbic acid 125 μM, 30 min", "value": 75.92, "unit": "µmol"}, {"measurement": "glucoraphanin (GR) content", "setting": "[1]; ascorbic acid 125 μM, 45 min", "value": 68.09, "unit": "µmol"}, {"measurement": "glucoraphanin (GR) content", "setting": "[1]; ascorbic acid 125 μM, 60 min", "value": 59.41, "unit": "µmol"}, {"measurement": "Slope (rate of glucoraphanin consumption)", "setting": "[1]; ascorbic acid 125 μM", "value": -0.5622, "unit": "µmol/min"}, {"measurement": "glucoraphanin (GR) content", "setting": "[1]; ascorbic acid 250 μM Filtered, 0 min", "value": 93.36, "unit": "µmol"}, {"measurement": "glucoraphanin (GR) content", "setting": "[1]; ascorbic acid 250 μM Filtered, 15 min", "value": 86.31, "unit": "µmol"}, {"measurement": "glucoraphanin (GR) content", "setting": "[1]; ascorbic acid 250 μM Filtered, 30 min", "value": 79.44, "unit": "µmol"}, {"measurement": "glucoraphanin (GR) content", "setting": "[1]; ascorbic acid 250 μM Filtered, 45 min", "value": 71.94, "unit": "µmol"}, {"measurement": "glucoraphanin (GR) content", "setting": "[1]; ascorbic acid 250 μM Filtered, 60 min", "value": 65.18, "unit": "µmol"}, {"measurement": "Slope (rate of glucoraphanin consumption)", "setting": "[1]; ascorbic acid 250 μM Filtered", "value": -0.4714, "unit": "µmol/min"}, {"measurement": "glucoraphanin (GR) content", "setting": "[1]; ascorbic acid 250 μM, 0 min", "value": 93.36, "unit": "µmol"}, {"measurement": "glucoraphanin (GR) content", "setting": "[1]; ascorbic acid 250 μM, 15 min", "value": 80.95, "unit": "µmol"}, {"measurement": "glucoraphanin (GR) content", "setting": "[1]; ascorbic acid 250 μM, 30 min", "value": 69.06, "unit": "µmol"}, {"measurement": "glucoraphanin (GR) content", "setting": "[1]; ascorbic acid 250 μM, 45 min", "value": 57.63, "unit": "µmol"}, {"measurement": "glucoraphanin (GR) content", "setting": "[1]; ascorbic acid 250 μM, 60 min", "value": 45.76, "unit": "µmol"}, {"measurement": "Slope (rate of glucoraphanin consumption)", "setting": "[1]; ascorbic acid 250 μM", "value": -0.7901, "unit": "µmol/min"}, {"measurement": "glucoraphanin (GR) content", "setting": "[1]; ascorbic acid 400 μM, 0 min", "value": 93.36, "unit": "µmol"}, {"measurement": "glucoraphanin (GR) content", "setting": "[1]; ascorbic acid 400 μM, 15 min", "value": 78.32, "unit": "µmol"}, {"measurement": "glucoraphanin (GR) content", "setting": "[1]; ascorbic acid 400 μM, 30 min", "value": 62.78, "unit": "µmol"}, {"measurement": "glucoraphanin (GR) content", "setting": "[1]; ascorbic acid 400 μM, 45 min", "value": 47.67, "unit": "µmol"}, {"measurement": "glucoraphanin (GR) content", "setting": "[1]; ascorbic acid 400 μM, 60 min", "value": 33.15, "unit": "µmol"}, {"measurement": "Slope (rate of glucoraphanin consumption)", "setting": "[1]; ascorbic acid 400 μM", "value": -1.007, "unit": "µmol/min"}, {"measurement": "glucoraphanin (GR) content", "setting": "[1]; ascorbic acid 600 μM, 0 min", "value": 93.36, "unit": "µmol"}, {"measurement": "glucoraphanin (GR) content", "setting": "[1]; ascorbic acid 600 μM, 15 min", "value": 75.02, "unit": "µmol"}, {"measurement": "glucoraphanin (GR) content", "setting": "[1]; ascorbic acid 600 μM, 30 min", "value": 55.66, "unit": "µmol"}, {"measurement": "glucoraphanin (GR) content", "setting": "[1]; ascorbic acid 600 μM, 45 min", "value": 37.50, "unit": "µmol"}, {"measurement": "glucoraphanin (GR) content", "setting": "[1]; ascorbic acid 600 μM, 60 min", "value": 22.09, "unit": "µmol"}, {"measurement": "Slope (rate of glucoraphanin consumption)", "setting": "[1]; ascorbic acid 600 μM", "value": -1.2, "unit": "µmol/min"}, {"measurement": "stoichiometry of glucoraphanin conversion to sulforaphane", "setting": "myrosinase", "value": "equimolar conversion"}]}, {"smiles": "O=S(=O)([O-])[O-].[Mg+2]", "note": "[magnesium sulfate]", "values": [{"measurement": "reduction in MCP-1 levels", "setting": "[2]", "value": "approximately 16%"}]}, {"smiles": "C[S+]([O-])CCCCN=C=S", "note": "(stereo not drawn) [sulforaphane, 1-isothiocyanato-4-methylsulfinylbutane]", "values": [{"measurement": "reduction in MCP-1 levels", "setting": "[2]", "value": "approximately 29%"}]}]}
